Source: patent publication US6204266A, “Pharmaceutical, cosmetic and/or food composition having anti-oxidant properties” (Universite Catholique De Louvain Halles Universitaires, priority 1995, dated 2001)

How the values were obtained:
[1] = tested on: Cu-Zn superoxide dismutase; experiment: Competition of imidazolopyrazine and superoxide dismutase for superoxide anion (xanthine oxidase/hypoxanthine), luminescence; type: biochemical; details: for change of slope of the relationship linking IO/I to the superoxide dismutase concentration: when the concentration of the luminescent compound is increased
Description: This method is based on the capacity of imidazolopyrazines to react with the superoxide anion, emitting light.
In these experiments, a constant level of superoxide anion is generated by an enzymatic method, by reacting xanthine oxidase with hypoxanthine in the presence of oxygen.
The maximum light intensity, measured by a luminometer during the competition reaction, is linked to the ratio in [sic] imidazolopyrazine and superoxide dismutase concentrations, as well as to that of the respective rate constants.
Consequently, knowing the rate constant of the reaction of the competing antioxidant with the superoxide anion (K3), the rate constant of the reaction of the imidazolopyrazine with the superoxide anion (K2) may be calculated:
By carrying out this experiment at two imidazolopyrazine concentrations, it is possible to eliminate K1 [O2^2- ] corresponding to the spontaneous disproportionation reaction of O2^2-. The slopes A and B of the straight lines linking IO /I [sic] to the superoxide dismutase concentration are: [formula]
K2 =K3 /([IMPZ]1 -[IMPZ]2)/(1/A)-1/B)
When the imidazolopyrazine concentration is increased, the slope of the relationship linking IO /I [sic] to the superoxide dismutase concentration should decrease.

[2] = In vitro toxicity on other mammalian cell types (FIG. 11); type: cell-based; details: pig (EAP) endothelial cells, read-out: concentration at which a toxic effect can possibly be observed
Procedure: Similar in vitro toxicity tests were performed on other mammalian (porcine, human, etc.) cell types.
FIG. 11 depicts the percentage survival of different cell types (fibroblasts, human (ECV) or pig (EAP) endothelial cells) as a function of increasing doses of CLZ-9 (molar). A toxic effect of the products can possibly be observed on a certain cell type at high concentrations (10^-4 M in pigs).

[3] = tested on: Human fibroblasts; experiment: Protection of human fibroblasts against oxidative stress inducer tert-butyl hydroperoxide (t-BHP); type: cell-based
Procedure: Human fibroblasts were subjected to an oxidative stress inducer (tert-butyl hydroperoxide (t-BHP)) for 6 to 12 hours in the absence and in the presence of increasing doses of coelenterazine and its derivatives.
In the same experimental series, the efficacy of vitamin E (α-tocopherol) (Troxol®), a major antioxidant of animal cells, was compared.

[4] = tested on: human fibroblasts (MRC5); experiment: In vitro toxicity on human fibroblasts (MRC5), total protein content; type: cell-based; details: concentration of 0.1 mM (10^-4 M), 1% ethanol
Procedure: Each of the imidazolopyrazine derivatives tested was applied to human fibroblasts (MRC5) in culture. The doses of the compounds ranged from 10^-8 to 10^-4 M. These compounds were applied 48 hours after the cells were inoculated into wells (volume=150 μl; 3000 cells per well).
After a further 24 hour period, the culture medium is renewed, the cells are incubated for 72 hours and their level of survival and of growth is evaluated by measuring the total protein contents in each well (Biorad).

[5] = Stability in aqueous medium (buffers pH 4, 7, 10; assayed by luminescence in DMSO); type: physicochemical; details: irrespective of the pH
Procedure: FIG. 7 depicts the stability of the derivative 10 in an aqueous medium. Three 10^-5 M solutions of CLZN-10 were prepared in citrate (pH 4), phosphate (pH 7) and glycine (pH 10) buffers. Aliquots of these solutions were sampled regularly and the CLZN-10 assayed by luminescence in DMSO.
In comparison with coelenterazine, derivatives comprising additional phenyl groups display better stability.

[6] = In vivo toxicity in mice; details: mouse, in vivo, ip, 0.02 mg/kg
[7] = tested on: mice; experiment: In vivo toxicity in mice; details: 20 μg/kg, 5 intraperitoneal injections
[8] = tested on: mice; details: mouse, in vivo
[9] = t-BHP-treated human fibroblasts

**Q.** For `Cc1nc2c(Cc3ccccc3)[nH]c(-c3ccc(O)cc3)cn-2c1=O` [CLZN-9, 3,7-dihydro-2-methyl-6-(p-hydroxyphenyl)-8-benzylimidazo[1,2-a]pyrazyn-3-one], which “increase of KSOD with imidazolopyrazine concentration (effect)” value [1] is on record?
**A.** observed

**Q.** And the MCC [2]?
**A.** 100 µM

**Q.** And the EC100 ([3]; Fibroblast, t-BHP-treated human fibroblasts, read-out: concentration at which protection is total)?
**A.** 1 µM

**Q.** And the minimal effective concentration ([3]; Fibroblast, t-BHP-treated human fibroblasts, read-out: concentration from which the improvement of survival is significant)?
**A.** 0.02 µM

**Q.** And the “survival of the t-BHP-treated cells” value ([3]; t-BHP 10^-4 M, without serum (FIG. 8))?
**A.** most advantageous results

**Q.** And the “antioxidant activity compared with vitamin E” value [3, 9]?
**A.** greater than

**Q.** Which “increase of KSOD with imidazolopyrazine concentration (effect)” value [1] does the source give for `O=c1c(-c2ccccc2)nc2c(Cc3ccccc3)[nH]c(-c3ccc(O)cc3)cn1-2` [CLZN-10, 3,7-dihydro-2-phenyl-6-(p-hydroxyphenyl)-8-benzylimidazo[1,2-a]pyrazyn-3-one] here?
**A.** observed

**Q.** With `O=c1c(Cc2ccccc2)nc2c(Cc3ccccc3)[nH]c(-c3ccc(O)cc3)cn1-2` [CLZN-11, 3,7-dihydro-2-benzyl-6-(p-hydroxyphenyl)-8-benzylimidazo[1,2-a]pyrazyn-3-one] as the compound, how does the “toxicity for human fibroblasts (MRC5)” value [4] read?
**A.** significant toxicity

**Q.** With `Oc1ccc(Cc2nc3c(Cc4ccccc4)nc(-c4ccc(O)cc4)cn3c2O)cc1` [coelenterazine, 3,7-dihydro-2-(p-hydroxybenzyl)-6-(p-hydroxyphenyl)-8-benzylimidazo[1,2-a]pyrazyn-3-one] as the compound, how does the “rate constant KSOD” value ([1]; coelenterazine concentration 50 nM) read?
**A.** 2×10^9

**Q.** What about the “rate constant KSOD” value ([1]; coelenterazine concentration 400 nM) of the same compound?
**A.** 2.5×10^10

**Q.** What about the “increase in rate constant KSOD” value ([1]; coelenterazine concentration multiplied by 8 (from 50 to 400 nM)) of the same compound?
**A.** 12.5 fold

**Q.** What about the “change of slope of the relationship linking IO/I to the superoxide dismutase concentration” value [1] of the same compound?
**A.** a rise in the slope

**Q.** And the “stability in an aqueous medium” value [5]?
**A.** only a few hours

**Q.** And the survival [6]?
**A.** 100%

**Q.** What about the toxicity for mice [7] of the same compound?
**A.** not toxic

**Q.** What about the “antioxidant activity compared with vitamin E” value [3, 9] of the same compound?
**A.** equivalent to

**Q.** And the “Weight (in grams) after 0 day” value [8]?
**A.** 16.19 grams

**Q.** And the “Weight (in grams) after 6 days” value [8]?
**A.** 22.82 grams

**Q.** And the “Weight (in grams) after 30 days” value [8]?
**A.** 31.57 grams

**Q.** What about the survival [8] of the same compound?
**A.** 5/5

**Q.** What about the growth retardation ([8]; ip) of the same compound?
**A.** no growth retardation is observed

**Q.** Which “change of slope of the relationship linking IO/I to the superoxide dismutase concentration” value [1] does the source give for `Nc1cccc2c(=O)[nH][nH]c(=O)c12` [luminol, reference compound] here?
**A.** a regular decrease in the slope

**Q.** Which protection ([3]; serum (10%) in the culture medium, highest concentrations) does the source give for `Cc1c(C)c2c(c(C)c1O)CC[C@@](C)(CCC[C@H](C)CCC[C@H](C)CCCC(C)C)O2` [vitamin E, α-tocopherol, reference compound] here?
**A.** 60%
